Holding throughout (type): cell-based
For one experiment, the target named is T1, human TLR9 (Homo sapiens, UniProt Q9NR96).
T1 construct: host or cells: HEK-Blue cells (HEK293-derived reporter line)
T1 sequence (Q9NR96 26-1032): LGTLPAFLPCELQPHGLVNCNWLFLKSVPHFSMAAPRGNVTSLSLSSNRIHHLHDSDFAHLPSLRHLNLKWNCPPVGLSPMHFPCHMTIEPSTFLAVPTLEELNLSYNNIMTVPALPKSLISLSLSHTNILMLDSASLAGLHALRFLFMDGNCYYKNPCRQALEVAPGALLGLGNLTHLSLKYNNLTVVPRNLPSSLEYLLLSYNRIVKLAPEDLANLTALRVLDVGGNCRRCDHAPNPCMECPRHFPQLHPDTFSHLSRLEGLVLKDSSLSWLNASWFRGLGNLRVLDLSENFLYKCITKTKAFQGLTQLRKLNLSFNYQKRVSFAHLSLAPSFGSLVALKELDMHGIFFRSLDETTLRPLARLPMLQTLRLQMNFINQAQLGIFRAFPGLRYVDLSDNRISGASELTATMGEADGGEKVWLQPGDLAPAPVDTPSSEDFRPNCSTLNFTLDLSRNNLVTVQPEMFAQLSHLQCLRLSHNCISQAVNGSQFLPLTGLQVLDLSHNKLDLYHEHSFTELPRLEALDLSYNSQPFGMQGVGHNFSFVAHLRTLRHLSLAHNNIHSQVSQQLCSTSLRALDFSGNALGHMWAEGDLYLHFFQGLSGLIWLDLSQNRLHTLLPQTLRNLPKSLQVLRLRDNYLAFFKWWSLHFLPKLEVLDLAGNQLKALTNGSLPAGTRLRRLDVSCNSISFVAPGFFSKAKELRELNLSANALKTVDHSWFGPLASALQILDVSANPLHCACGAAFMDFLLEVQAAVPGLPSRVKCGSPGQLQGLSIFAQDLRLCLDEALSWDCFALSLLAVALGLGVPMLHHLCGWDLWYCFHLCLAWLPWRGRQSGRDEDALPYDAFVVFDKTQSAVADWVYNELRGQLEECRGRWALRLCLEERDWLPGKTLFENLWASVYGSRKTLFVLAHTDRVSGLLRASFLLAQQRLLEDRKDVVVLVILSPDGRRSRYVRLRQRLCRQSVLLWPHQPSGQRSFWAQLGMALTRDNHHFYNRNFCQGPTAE
Put plainly: TLR7/8/9 Inhibition Reporter Assays (TLR9). To be noted: HEK-Blue cells overexpressing human TLR9, SEAP reporter, stimulated with TLR9 ligand ODN2006. As for the experimental part: (§1) HEK-Blue™-cells (Invivogen) overexpressing human TLR7, TLR8 or TLR9 receptors were used for screening inhibitors of these receptors using an inducible SEAP (secreted embryonic alkaline phosphatase) reporter gene under the control of the IFN-β minimal promoter fused to five NF-κB and AP-1-binding sites. Cells are seeded into Greiner 384 well plates (15000 cells per well) that are predispensed (by ECHO) with testing compounds in DMSO to yield a final dose response concentration range of 0.85 nM-[…]. After a 60 minute compound pre-treatment in 37° C. incubator, the cells are then stimulated with a TLR7 ligand (gardiquimod at a final concentration of […]), TLR8 ligand (R848 at a final concentration of […]) or TLR9 ligand (ODN2006 at a final concentration of 200 nM) to activate NF-κB and AP-1 which induce the production of SEAP. After a 22 hour incubation at 37° C., 5% CO2, SEAP levels are determined with the addition of HEK-Blue™ Detection reagent (Invivogen), a cell culture medium that allows for detection of SEAP, according to manufacturer's specifications. The percent inhibition is determined as the % reduction in the HEK-Blue signal present in wells treated with agonist plus DMSO alone compared to wells treated with a known inhibitor.
(In a reporter assay the amount or activity of a reporter protein is the signal.)

The next experiment addresses T2, human TLR8 (Homo sapiens, UniProt Q9NR97).
T2 construct: host or cells: HEK-Blue cells (HEK293-derived reporter line)
T2 sequence (Q9NR97 27-1041): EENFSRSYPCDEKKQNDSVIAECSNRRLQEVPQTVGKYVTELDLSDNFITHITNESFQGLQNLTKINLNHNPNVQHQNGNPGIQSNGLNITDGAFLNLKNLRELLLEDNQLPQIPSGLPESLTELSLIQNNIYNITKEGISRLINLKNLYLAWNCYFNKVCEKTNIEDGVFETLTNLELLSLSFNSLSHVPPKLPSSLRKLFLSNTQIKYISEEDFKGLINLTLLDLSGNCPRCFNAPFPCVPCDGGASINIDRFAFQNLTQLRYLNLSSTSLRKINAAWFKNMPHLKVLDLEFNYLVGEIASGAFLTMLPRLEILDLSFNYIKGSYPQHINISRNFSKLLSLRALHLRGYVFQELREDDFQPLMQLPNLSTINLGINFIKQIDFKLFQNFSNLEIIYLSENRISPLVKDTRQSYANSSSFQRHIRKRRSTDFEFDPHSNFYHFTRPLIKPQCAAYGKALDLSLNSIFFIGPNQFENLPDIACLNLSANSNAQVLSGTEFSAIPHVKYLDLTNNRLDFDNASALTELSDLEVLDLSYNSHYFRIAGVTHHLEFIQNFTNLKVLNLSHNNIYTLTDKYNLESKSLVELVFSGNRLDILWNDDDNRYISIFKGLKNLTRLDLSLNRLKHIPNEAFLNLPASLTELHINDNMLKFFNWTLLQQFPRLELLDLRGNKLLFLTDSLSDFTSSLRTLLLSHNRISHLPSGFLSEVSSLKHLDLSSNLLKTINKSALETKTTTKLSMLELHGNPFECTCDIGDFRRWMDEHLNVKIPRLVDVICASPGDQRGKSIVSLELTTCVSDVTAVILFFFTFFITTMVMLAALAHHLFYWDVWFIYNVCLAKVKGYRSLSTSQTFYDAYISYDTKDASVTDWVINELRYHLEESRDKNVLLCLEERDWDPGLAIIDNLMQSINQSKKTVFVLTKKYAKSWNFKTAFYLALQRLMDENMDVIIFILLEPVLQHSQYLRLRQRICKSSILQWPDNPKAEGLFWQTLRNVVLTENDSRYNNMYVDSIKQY
Put plainly: TLR7/8/9 Inhibition Reporter Assays (TLR8). As to conditions: HEK-Blue cells overexpressing human TLR8, SEAP reporter, stimulated with TLR8 ligand R848. As for the experimental part: as §1

The target of a further experiment is T3, human TLR7 (Homo sapiens, UniProt Q9NYK1).
T3 construct: host or cells: HEK-Blue cells (HEK293-derived reporter line)
T3 sequence (Q9NYK1 27-1049): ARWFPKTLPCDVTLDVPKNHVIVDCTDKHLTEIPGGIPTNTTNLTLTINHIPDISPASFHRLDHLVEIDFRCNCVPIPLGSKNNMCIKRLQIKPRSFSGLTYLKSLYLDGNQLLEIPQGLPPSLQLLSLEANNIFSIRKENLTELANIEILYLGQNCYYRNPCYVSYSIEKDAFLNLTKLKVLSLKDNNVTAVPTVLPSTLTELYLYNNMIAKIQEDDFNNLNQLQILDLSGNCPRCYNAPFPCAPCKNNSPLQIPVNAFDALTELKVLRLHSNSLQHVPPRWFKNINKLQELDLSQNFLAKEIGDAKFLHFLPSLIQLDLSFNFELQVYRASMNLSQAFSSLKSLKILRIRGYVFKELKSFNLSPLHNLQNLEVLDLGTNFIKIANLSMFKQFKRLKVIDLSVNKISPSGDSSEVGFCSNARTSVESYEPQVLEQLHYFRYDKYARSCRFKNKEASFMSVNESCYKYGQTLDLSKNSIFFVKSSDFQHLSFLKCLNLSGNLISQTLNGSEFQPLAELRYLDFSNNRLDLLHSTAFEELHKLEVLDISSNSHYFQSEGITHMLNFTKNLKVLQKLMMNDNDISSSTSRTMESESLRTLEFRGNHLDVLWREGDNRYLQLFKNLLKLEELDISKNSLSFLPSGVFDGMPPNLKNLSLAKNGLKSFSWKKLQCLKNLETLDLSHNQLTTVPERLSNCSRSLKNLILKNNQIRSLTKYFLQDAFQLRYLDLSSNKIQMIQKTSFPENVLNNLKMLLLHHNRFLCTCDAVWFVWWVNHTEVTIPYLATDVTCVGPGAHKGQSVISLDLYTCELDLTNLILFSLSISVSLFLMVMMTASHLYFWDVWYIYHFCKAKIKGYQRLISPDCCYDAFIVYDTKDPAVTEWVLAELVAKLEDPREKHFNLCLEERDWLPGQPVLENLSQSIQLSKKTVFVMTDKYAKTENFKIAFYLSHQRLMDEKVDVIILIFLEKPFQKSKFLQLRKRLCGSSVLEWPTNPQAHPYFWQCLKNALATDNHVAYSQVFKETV
Put plainly: TLR7/8/9 Inhibition Reporter Assays (TLR7). To be noted: HEK-Blue cells overexpressing human TLR7, SEAP reporter, stimulated with TLR7 ligand gardiquimod. As for the experimental part: as §1

The structures appear in SMILES notation. Some results are limits rather than exact numbers.

In the case of `Cc1nc(-c2ccc(CN3CCC(N(C)C)CC3)cc2)cc2c1nc(-c1ccc(S(C)(=O)=O)cc1)n2C` [Example 45, 1-(4-(1,4-dimethyl-2-(4-(methylsulfonyl)phenyl)-1H-imidazo[4,5-c]pyridin-6-yl)benzyl)-N,N-dimethylpiperidin-4-amine], the IC50 (commonly the concentration that inhibits the measured activity by half) is 0.072 µM against human TLR9, 4.9 µM against human TLR8 and 1 µM against human TLR7.
As for `COc1ccc(-c2nc3cnc(-c4ccc(N5CCC6(CC5)CN(CC(C)C)C6)cc4)cc3n2C2CC2)cc1OC` [Example 61, 1-cyclopropyl-2-(3,4-dimethoxyphenyl)-6-(4-(2-isobutyl-2,7-diazaspiro[3.5]nonan-7-yl)phenyl)-1H-imidazo[4,5-c]pyridine], the IC50 was found to be 0.16 µM against human TLR9, 12 µM on human TLR8 and 12 µM at human TLR7.
For `Cc1nc(-c2ccc(N3CC4(C3)CN(C3CCC3)C4)cc2)cc2c1nc(-c1ccc(S(C)(=O)=O)cc1)n2C` [Example 79, 6-(4-(6-cyclobutyl-2,6-diazaspiro[3.3]heptan-2-yl)phenyl)-1,4-dimethyl-2-(4-(methylsulfonyl)phenyl)-1H-imidazo[4,5-c]pyridine], the IC50 against human TLR9 stood at 0.13 µM; against human TLR8, 3.7 µM; on human TLR7, 1.1 µM.
For `CC(C)N1CCC(N2CC=C(c3cc4c(nc(-c5ccc(S(C)(=O)=O)cc5)n4C)c(C(F)(F)F)n3)CC2)CC1` [Example 35, 6-(1-(1-isopropylpiperidin-4-yl)-1,2,3,6-tetrahydropyridin-4-yl)-1-methyl-2-(4-(methylsulfonyl)phenyl)-4-(trifluoromethyl)-1H-imidazo[4,5-c]pyridine], in that order: 0.16 µM, over 50 µM and 3.3 µM.
For `CC(C)CN1CCC(N2CCC(c3cc4c(nc(-c5ccc(S(C)(=O)=O)cc5)n4C)c(C(F)(F)F)n3)CC2)CC1` [Example 33, 6-(1′-isobutyl-[1,4′-bipiperidin]-4-yl)-1-methyl-2-(4-(methylsulfonyl)phenyl)-4-(trifluoromethyl)-1H-imidazo[4,5-c]pyridine], in that order: 0.59 µM, over 50 µM and 1.4 µM.
Regarding `COc1ccc(-c2nc3cnc(-c4ccc(N5C[C@H]6CN(CC(C)C)C[C@H]6C5)cc4)cc3n2C2CC2)cc1OC` [Example 82, 1-cyclopropyl-2-(3,4-dimethoxyphenyl)-6-(4-((3aR,6aS)-5-isobutylhexahydropyrrolo[3,4-c]pyrrol-2(1H)-yl)phenyl)-1H-imidazo[4,5-c]pyridine], the results for the IC50 against human TLR9, at human TLR8 and on human TLR7 were 0.22 µM, 4.2 µM and 3.8 µM, respectively.
For `COc1ccc(-c2nc3c(C)nc(-c4ccc(N5C[C@@H]6CN(C(C)C)C[C@@H]6C5)cc4)cc3n2C)cc1OC` [Example 59, 2-(3,4-dimethoxyphenyl)-6-(4-((3aR,6aS)-5-isopropylhexahydropyrrolo[3,4-c]pyrrol-2(1H)-yl)phenyl)-1,4-dimethyl-1H-imidazo[4,5-c]pyridine], in that order: 0.024 µM, 21 µM and 1.7 µM.
Take `Cc1ccccc1C(=O)N1CCC(NCc2ccc(-c3cc4c(nc(-c5ccc(S(C)(=O)=O)cc5)n4C)c(C)n3)cc2)CC1` [Example 51, (4-((4-(1,4-dimethyl-2-(4-(methylsulfonyl)phenyl)-1H-imidazo[4,5-c]pyridin-6-yl)benzyl)amino)piperidin-1-yl)(o-tolyl)methanone]: the IC50 was determined as 2.3 µM on human TLR9 and 6.6 µM at human TLR7.
On to `Cc1nc(-c2ccc(C(=O)NC3CN(Cc4ccccc4)C3)cc2)cc2c1nc(-c1ccc(S(C)(=O)=O)cc1)n2C` [Example 49, N-(1-benzylazetidin-3-yl)-4-(1,4-dimethyl-2-(4-(methylsulfonyl)phenyl)-1H-imidazo[4,5-c]pyridin-6-yl)benzamide], for which the IC50 at human TLR9 came out at 0.81 µM; on human TLR7 it was 5.5 µM.
On human TLR9, `Cn1c(-c2ccc(S(C)(=O)=O)cc2)nc2cnc(C3CCN(C4CCN(C5CC5)CC4)CC3)cc21` [Example 32, 6-(1′-cyclopropyl-[1,4′-bipiperidin]-4-yl)-1-methyl-2-(4-(methylsulfonyl)phenyl)-1H-imidazo[4,5-c]pyridine] displayed an IC50 of 0.13 µM.
